Data published in ChEMBL document CHEMBL4184160, “Recent Progress of Small-Molecule Epidermal Growth Factor Receptor (EGFR) Inhibitors against C797S Resistance in Non-Small-Cell Lung Cancer” (J Med Chem, 2018).

How the values were obtained:
[1] = biological target: Epidermal growth factor receptor (Homo sapiens, UniProt P00533, C797S/T790M); test: Inhibition of N-terminal GST-fused human EGFR cytoplasmic domain T790M/C797S mutant expressed in baculovirus expression system using TK-substrate after 20 mins by HTRF KinEASE-TK assay
NCI-H1975 = test: Growth inhibition of human NCI-H1975 cells after 96 hrs by CellTiter-Glo assay; format: functional; settings: NCI-H1975, 96 h
[2] = biological target: Epidermal growth factor receptor (Homo sapiens, UniProt P00533, C797S/L858R/T790M); test: Inhibition of recombinant human EGFR L858R/T790M/C797S mutant using TK-substrate after 10 mins by HTRF KinEASE-TK assay
Epidermal growth factor receptor (Homo sapiens, UniProt P00533, C797S/L858R/T790M), sequence (P00533 25-1210 T790M/C797S/L858R limits assumed): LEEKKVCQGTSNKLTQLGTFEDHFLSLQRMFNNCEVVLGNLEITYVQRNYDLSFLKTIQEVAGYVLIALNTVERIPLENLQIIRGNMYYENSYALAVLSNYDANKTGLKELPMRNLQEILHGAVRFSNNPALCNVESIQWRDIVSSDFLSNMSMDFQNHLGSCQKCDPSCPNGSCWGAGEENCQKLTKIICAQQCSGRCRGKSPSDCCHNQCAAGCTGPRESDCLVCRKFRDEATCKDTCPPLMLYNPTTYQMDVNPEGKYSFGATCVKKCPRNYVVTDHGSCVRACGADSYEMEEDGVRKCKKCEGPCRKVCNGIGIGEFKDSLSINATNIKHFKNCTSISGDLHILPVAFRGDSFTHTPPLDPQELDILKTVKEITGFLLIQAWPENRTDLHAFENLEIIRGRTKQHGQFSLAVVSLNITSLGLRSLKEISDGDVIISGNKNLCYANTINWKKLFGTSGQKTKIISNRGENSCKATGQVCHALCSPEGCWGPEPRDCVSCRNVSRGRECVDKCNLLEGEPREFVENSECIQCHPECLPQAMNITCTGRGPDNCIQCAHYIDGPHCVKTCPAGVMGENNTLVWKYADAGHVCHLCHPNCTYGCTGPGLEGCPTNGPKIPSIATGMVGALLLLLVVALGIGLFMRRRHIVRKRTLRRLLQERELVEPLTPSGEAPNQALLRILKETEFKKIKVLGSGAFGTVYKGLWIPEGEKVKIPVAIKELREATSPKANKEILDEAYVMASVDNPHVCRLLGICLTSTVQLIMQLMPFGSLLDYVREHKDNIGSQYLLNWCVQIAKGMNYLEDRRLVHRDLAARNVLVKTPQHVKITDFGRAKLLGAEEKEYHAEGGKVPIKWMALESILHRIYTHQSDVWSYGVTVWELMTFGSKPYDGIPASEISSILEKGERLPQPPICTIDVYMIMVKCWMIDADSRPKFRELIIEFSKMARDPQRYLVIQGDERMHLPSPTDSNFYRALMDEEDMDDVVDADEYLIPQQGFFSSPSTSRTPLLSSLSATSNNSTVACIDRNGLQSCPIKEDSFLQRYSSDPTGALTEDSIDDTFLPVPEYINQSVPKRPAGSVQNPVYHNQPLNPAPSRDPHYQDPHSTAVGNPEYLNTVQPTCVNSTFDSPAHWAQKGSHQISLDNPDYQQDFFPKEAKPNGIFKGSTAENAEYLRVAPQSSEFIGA

[3] = biological target: Epidermal growth factor receptor (Homo sapiens, UniProt P00533); test: Inhibition of wild type recombinant N-terminal GST-tagged human EGFR catalytic domain expressed in Sf9 insect cells using poly-Glu-Tyr (4:1) as substrate after 2 hrs in presence of [gamma-33P]-ATP by filter-binding method
Epidermal growth factor receptor (Homo sapiens, UniProt P00533), sequence (P00533 whole entry, the tested form may be a part): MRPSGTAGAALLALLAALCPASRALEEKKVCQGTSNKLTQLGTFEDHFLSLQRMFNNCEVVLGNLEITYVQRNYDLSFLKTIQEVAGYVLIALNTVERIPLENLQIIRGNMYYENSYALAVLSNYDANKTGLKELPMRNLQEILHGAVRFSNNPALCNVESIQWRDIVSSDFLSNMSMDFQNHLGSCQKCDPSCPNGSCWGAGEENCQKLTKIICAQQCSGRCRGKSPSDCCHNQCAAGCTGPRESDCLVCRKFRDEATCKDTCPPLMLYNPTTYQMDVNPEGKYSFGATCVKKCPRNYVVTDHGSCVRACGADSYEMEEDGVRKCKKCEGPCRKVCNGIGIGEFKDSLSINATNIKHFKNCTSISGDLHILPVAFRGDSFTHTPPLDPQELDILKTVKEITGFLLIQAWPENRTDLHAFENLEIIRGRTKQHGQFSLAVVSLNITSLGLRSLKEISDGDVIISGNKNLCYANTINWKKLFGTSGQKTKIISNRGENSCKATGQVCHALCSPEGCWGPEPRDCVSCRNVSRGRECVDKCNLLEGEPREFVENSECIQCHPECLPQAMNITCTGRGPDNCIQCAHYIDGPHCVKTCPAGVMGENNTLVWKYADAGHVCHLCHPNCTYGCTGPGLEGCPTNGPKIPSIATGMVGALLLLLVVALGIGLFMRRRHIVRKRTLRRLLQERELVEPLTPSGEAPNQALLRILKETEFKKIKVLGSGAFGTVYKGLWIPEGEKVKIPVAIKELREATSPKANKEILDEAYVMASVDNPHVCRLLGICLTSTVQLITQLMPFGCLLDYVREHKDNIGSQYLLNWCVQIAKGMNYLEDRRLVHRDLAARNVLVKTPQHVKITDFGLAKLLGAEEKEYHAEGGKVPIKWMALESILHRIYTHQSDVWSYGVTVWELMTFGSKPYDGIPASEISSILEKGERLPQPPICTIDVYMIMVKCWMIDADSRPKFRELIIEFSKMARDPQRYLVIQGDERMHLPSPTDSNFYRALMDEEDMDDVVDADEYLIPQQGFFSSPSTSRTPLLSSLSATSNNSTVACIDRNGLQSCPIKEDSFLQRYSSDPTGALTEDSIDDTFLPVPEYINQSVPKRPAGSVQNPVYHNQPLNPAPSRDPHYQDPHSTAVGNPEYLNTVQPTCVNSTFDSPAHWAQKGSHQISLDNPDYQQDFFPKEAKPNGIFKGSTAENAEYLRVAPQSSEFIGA

[4] = biological target: Epidermal growth factor receptor (Homo sapiens, UniProt P00533, 746-750DEL/C797S/T790M); test: Inhibition of recombinant human EGFR d746-750/T790M/C797S mutant using poly-Glu-Tyr (4:1) as substrate after 2 hrs in presence of [gamma-33P]-ATP by filter-binding method
Epidermal growth factor receptor (Homo sapiens, UniProt P00533, 746-750DEL/C797S/T790M), sequence (P00533 whole entry, looked up, stated change not applied, the tested form may be a part): as the sequence (P00533 whole entry, the tested form may be a part) above

Homo sapiens [5] = species: Homo sapiens; test: Selectivity ratio of IC50 for wild type recombinant N-terminal GST-tagged human EGFR catalytic domain to IC50 for recombinant human EGFR d746-750/T790M/C797S mutant
[6] = test system: Epidermal growth factor receptor (Homo sapiens), P00533 [UNDEFINED MUTATION]
Epidermal growth factor receptor (Homo sapiens), P00533 [UNDEFINED MUTATION], sequence (P00533 whole entry, looked up, stated change not applied): as the sequence (P00533 whole entry, the tested form may be a part) above
Description: Inhibition of human EGFR del19/T790M/C797S mutant expressed in mouse Ba/F3 cells assessed as cell growth inhibition after 72 hrs by CellTiter-Glo assay

Homo sapiens [7] = species: Homo sapiens; test: Selectivity ratio of IC50 for human EGFR T790M mutant to IC50 for human wild type EGFR

| IC50 [3] [nM] | IC50 [4] [nM] | Ratio IC50 (Homo sapiens [5]) | GI50 [6] [nM] | SMILES | other results |
| --- | --- | --- | --- | --- | --- |
|  |  |  | 780 | Cc1cc(Nc2ncc(Cl)c(Nc3ccccc3S(=O)(=O)C(C)C)n2)c(OC(C)C)cc1C1CCNCC1 |  |
|  |  |  | 132 | COc1cc(N2CCC(N)CC2)ccc1Nc1ncc(Cl)c(-c2c[nH]c3ccccc23)n1 |  |
|  |  |  | 1510 | COc1cc(N2CCC(N3CCN(C)CC3)CC2)ccc1Nc1ncnc(Nc2ccccc2S(=O)(=O)C(C)C)n1 |  |
|  |  |  | 59.1 | COc1cc(N2CCC(N(C)C)CC2)ccc1Nc1ncc(Cl)c(Nc2ccccc2P(C)(C)=O)n1 |  |

The next lines start with the compound.

| SMILES | IC50 [3] [nM] | IC50 [4] [nM] | Ratio IC50 (Homo sapiens [5]) | GI50 [6] [nM] | other results |
| --- | --- | --- | --- | --- | --- |
| C=CC(=O)N1CCC[C@@H](n2nc(-c3ccc4ccccc4c3)c3c(N)ncnc32)C1 |  |  |  |  | IC50 [1]: < 1 nM; GI50 (NCI-H1975): 140 nM; IC50 [2]: 88 nM |
| N#Cc1ccc(O)c(-c2nc(NCc3cccnc3)c3ccccc3n2)c1 | > 50000 | 23 | > 1000 |  |  |
| C=CC(=O)N1CCC[C@@H](n2nc(-c3cccc4ccccc34)c3c(N)ncnc32)C1 |  |  |  |  | IC50 [1]: 1.9 nM; GI50 (NCI-H1975): 490 nM; IC50 [2]: 7900 nM |
| COC(=O)c1ccc(O)c(-c2nc(NCc3cccnc3)c3ccccc3n2)c1 | > 50000 | 46 | > 1000 |  |  |
| C=CC(=O)N1CCC[C@@H](n2nc(-c3cn(C)c4ccccc34)c3c(N)ncnc32)C1 |  |  |  |  | IC50 [1]: 2.5 nM; GI50 (NCI-H1975): 210 nM; IC50 [2]: 838 nM |
| Oc1ccccc1-c1nc(NCc2cccnc2)c2ccccc2n1 | 24300 | 149 | 163 |  |  |
| C=CC(=O)Nc1cccc(Oc2nc(Nc3ccc(N4CCN(C)CC4)cc3OC)ncc2Cl)c1 |  |  |  |  | Ratio IC50 (Homo sapiens [7]): 30 to 100 |
| N#Cc1ccc(O)c(-c2nc(NCc3cnccn3)c3ccccc3n2)c1 | > 50000 | 17 | > 1000 |  |  |
